Source: article PMC6537213, “Ellagic acid microspheres restrict the growth of Babesia and Theileria in vitro and Babesia microti in vivo” (Parasites & Vectors, 2019)

Tests used:
[1] = system: Babesia bovis (Texas strain); test: in vitro growth inhibition assay (SYBR Green I fluorescence), single drug and 1:1 combination; assay type: cell-based
Experimental: (§1) A microaerophilic stationary-phase culture system was used to maintain Babesia parasite cultures for a long time. Briefly, B. caballi (USDA strain) was grown using equine red blood cells (RBCs) in GIT medium supplemented with 40% equine serum. Theileria equi (USDA strain) was grown in equine RBCs in Medium 199 (M199; Sigma-Aldrich, Tokyo) supplemented with 40% equine serum, and hypoxanthine (MP Biomedicals, Santa Ana, CA, USA) at a final concentration of 13.6 μg/ml was used as a vital supplement. Babesia bovis (Texas strain) and B. bigemina (Argentina strain) were grown in bovine RBCs in M199 medium supplemented with 40% bovine serum. Meanwhile, B. divergens (Germany strain) was grown in bovine RBCs in medium RPMI 1640 (Sigma-Aldrich, Tokyo) supplemented with 40% bovine serum. All media included 60 U/ml penicillin G, 60 μg/ml streptomycin and 0.15 μg/ml amphotericin B (Sigma-Aldrich, St. Louis, MO, USA) to prevent bacterial contamination. The cultures were incubated at 37 °C in a humidified chamber with an atmosphere of 5% CO2, 5% O2 and 90% N2. Babesia microti (Munich strain) was recovered from − 80 °C stock, intraperitoneally injected in two 8-week old female BALB/c mice (Clea Japan, Tokyo, Japan), and the parasitemia was monitored every 2 days. The mice were euthanized using an anesthesia system containing isoflurane after parasitemia reached approximately 30%, and blood was collected by cardiac puncture to initiate the in vivo experiment. The animal experiment was conducted in accordance with the Regulations for Animal Experiments of Obihiro University of Agriculture and Veterinary Medicine, Japan (animal experiment accession number: 290168).
(§2) Assays were performed in accordance with the previously described protocol. Briefly, B. bovis, B. bigemina, B. divergens, B. caballi and T. equi cultures were harvested and adjusted to 1% parasitemia with fresh RBCs to start the inhibition assay. The assays were carried out using 96-well microtiter plates where only the 60 inner wells were used, while the peripheral wells were filled with sterile distillate water to reduce evaporation during incubation. In five 96-well plates, a volume of 2.5 µl each of B. bigemina- and B. bovis-iRBCs and 5 µl each of B. divergens-, B. caballi- and T. equi-iRBCs were added to each well in triplicate and mixed with a culture medium containing the drug concentrations to a total volume of 100 µl. Various concentrations of EA, β-CD EA, APSP EA, DA, CF and AQ were dissolved in a culture medium using two-fold dilution. Wells containing DMSO at a final concentration of 0.4% and iRBCs were used as a positive control, while wells with non-infected RBCs and culture medium were used as a negative control. Additionally, a drug combination assay was performed in parallel with the single drug assay at a constant ratio of 1:1, as described previously. […] The plates were incubated in a humidified incubator with 5% CO2, 5% O2 and 90% N2 for 4 days without changing the medium. On day 4, 100 µl of a lysis buffer containing 2 × SG1 was added to each well. The plates were wrapped with aluminum foil to avoid direct light exposure and incubated at room temperature. After 6 h, fluorescence values were measured using a fluorescence spectrophotometer (Fluoroskan Ascent; Thermo LabSystems, Oceanside, CA, USA) with excitation and emission wavelengths of 485 and 518 nm, respectively. The fluorescence data were subtracted from the negative control and used to calculate the IC50. To calculate the degree of association, the growth-inhibition values obtained were entered into CompuSyn software, based on the combination index (CI) values. […] The experiments were repeated three times.

[2] = system: Theileria equi (USDA strain); test: as above; assay type: cell-based
Experimental: as §1, §2

[3] = system: B. divergens (Germany strain); test: as above; assay type: cell-based, Babesia divergens
Experimental: as §1
(§3) Assays were performed in accordance with the previously described protocol. Briefly, B. bovis, B. bigemina, B. divergens, B. caballi and T. equi cultures were harvested and adjusted to 1% parasitemia with fresh RBCs to start the inhibition assay. The assays were carried out using 96-well microtiter plates where only the 60 inner wells were used, while the peripheral wells were filled with sterile distillate water to reduce evaporation during incubation. In five 96-well plates, a volume of 2.5 µl each of B. bigemina- and B. bovis-iRBCs and 5 µl each of B. divergens-, B. caballi- and T. equi-iRBCs were added to each well in triplicate and mixed with a culture medium containing the drug concentrations to a total volume of 100 µl. Various concentrations of EA, β-CD EA, APSP EA, DA, CF and AQ were dissolved in a culture medium using two-fold dilution. Wells containing DMSO at a final concentration of 0.4% and iRBCs were used as a positive control, while wells with non-infected RBCs and culture medium were used as a negative control. Additionally, a drug combination assay was performed in parallel with the single drug assay at a constant ratio of 1:1, as described previously. […] The plates were incubated in a humidified incubator with 5% CO2, 5% O2 and 90% N2 for 4 days without changing the medium. On day 4, 100 µl of a lysis buffer containing 2 × SG1 was added to each well. The plates were wrapped with aluminum foil to avoid direct light exposure and incubated at room temperature. After 6 h, fluorescence values were measured using a fluorescence spectrophotometer (Fluoroskan Ascent; Thermo LabSystems, Oceanside, CA, USA) with excitation and emission wavelengths of 485 and 518 nm, respectively. The fluorescence data were subtracted from the negative control and used to calculate the IC50. […]

[4] = system: B. caballi (USDA strain); test: as above; assay type: cell-based, Babesia caballi
Experimental: as §1, §3

[5] = system: Madin-Darby bovine kidney (MDBK) cell line; test: cytotoxicity assay (CCK-8); assay type: cell-based
Experimental: (§4) The MDBK cell line was maintained in 75 cm^2 culture flasks with Minimum Essential Medium Eagle (MEM; Gibco, Grand Island, NY, USA), while Dulbecco’s Modified Eagle’s Medium (DMEM; […] Each medium was supplemented with 10% fetal bovine serum, 0.5% penicillin/streptomycin (Gibco), and an additional 1% glutamine. Every 3 to 4 days, the medium was changed, and the cells were incubated until approximately 80% confluent. The cells were free from mycoplasma contamination after being checked by staining with 4,6-diamidino-2-phenylindole dihydrochloride (DAPI; Sigma-Aldrich, St. Louis). The cell detachment from the culture flask was done using TrypLE^TM Express (Gibco) after washing two times with Dulbecco’s phosphate-buffered saline (DPBS). Subsequently, viable cells were counted using a Neubauer Improved C-Chip (NanoEnTek Inc., Seoul, Korea) after staining with 0.4% trypan blue solution. The drug-exposure viability assay was performed in accordance with the recommendation for the Cell Counting Kit-8 (CCK-8; Dojindo, Kumamoto, Japan). Briefly, in a 96-well plate, 100 µl of cells at a density of 5 × 10^4 cells/ml were seeded per well and allowed to attach to the plate for 24 h at 37 °C in a humidified incubator with 5% CO2. Ten microliters of drug diluted two-fold were added to each well to a final concentration of 0.781 to 800 µM in triplicate. Wells with only a culture medium were used as blanks, while wells containing cells and a medium with 0.5% DMSO were used as positive controls. Drug exposure lasted for 24 h. After 24 h, 10 µl of CCK-8 was added, and the plate was further incubated for 3 h. Absorbance was measured at 450 nm using a microplate reader.

[6] = system: human foreskin fibroblast (HFF) cell line; test: cytotoxicity assay (CCK-8); assay type: cell-based
Experimental: as §4

[7] = system: mouse embryonic fibroblast (NIH/3T3) cell line; test: cytotoxicity assay (CCK-8); assay type: cell-based
Experimental: as §4

[8] = system: P. falciparum; design: method as in PMID 19015354; conditions: cited from earlier work
[9] = system: L. major; design: method as in PMID 28643086; conditions: cited from earlier work

SMILES: O=c1oc2c(O)c(O)cc3c(=O)oc4c(O)c(O)cc1c4c23 [EA, Ellagic acid]
- concentration that significantly inhibited the growth ([1]; B. bovis, t-test vs control): 0.078 µM
- IC50 ([1]; Babesia bovis, in Bos taurus, 96 h, B. bovis in vitro culture, 4 days): 9.58 ± 1.47 µM
- concentration that significantly inhibited the growth ([2]; T. equi, t-test vs control): 0.125 µM
- IC50 ([2]; Theileria equi, 96 h, T. equi in vitro culture, 4 days): 7.46 ± 0.6 µM
- concentration that significantly inhibited the growth ([3]; B. divergens, t-test vs control): 0.125 µM
- IC50 ([3]; Babesia divergens, 96 h, B. divergens in vitro culture, 4 days): 5.41 ± 2.8 µM
- concentration that significantly inhibited the growth ([4]; B. caballi, t-test vs control): 0.125 µM
- IC50 ([4]; Babesia caballi, 96 h, B. caballi in vitro culture, 4 days): 3.29 ± 0.42 µM
- EC50 ([5]; Bos taurus, MDBK, 24 h, MDBK cells, 24 h exposure, CCK-8): > 800 µM
- Selective indices MDBK ([5]; EC50 MDBK / IC50 B. bigemina): > 101.3
- Selective indices MDBK ([5]; EC50 MDBK / IC50 B. bovis): > 83.3
- Selective indices MDBK ([5]; EC50 MDBK / IC50 B. divergens): > 148.1
- Selective indices MDBK ([5]; EC50 MDBK / IC50 T. equi): > 106.7
- inhibition of cell viability ([5]; MDBK, 800 µM): did not show any inhibition
- Selective indices HFF ([6]; EC50 HFF / IC50 B. bigemina): > 101.3
- Selective indices HFF ([6]; EC50 HFF / IC50 B. bovis): > 83.3
- Selective indices HFF ([6]; EC50 HFF / IC50 B. divergens): > 148.1
- Selective indices HFF ([6]; EC50 HFF / IC50 T. equi): > 106.7
- EC50 ([6]; Homo sapiens, HFF cells, 24 h exposure, CCK-8): > 800 µM
- Selective indices NIH/3T3 ([7]; EC50 NIH/3T3 / IC50 B. bigemina): > 101.3
- Selective indices NIH/3T3 ([7]; EC50 NIH/3T3 / IC50 B. bovis): > 83.3
- Selective indices NIH/3T3 ([7]; EC50 NIH/3T3 / IC50 B. divergens): > 148.1
- Selective indices NIH/3T3 ([7]; EC50 NIH/3T3 / IC50 T. equi): > 106.7
- EC50 ([7]; Mus musculus, NIH3T3, NIH/3T3 cells, 24 h exposure, CCK-8): > 800 µM
- inhibition of cell viability ([7]; NIH/3T3, 800 µM): did not show any inhibition
- IC50 [8]: 0.33 µM
- IC50 [9]: 9.8 μg/ml^e
